Measurements as given in PMC3558805 (British Journal of Clinical Pharmacology, 2012).
≈ marks a conversion by molar mass, not a printed value. Entries after “also recorded” stand apart in the source; their conditions may differ.

Experiments:
[1] = tested on: Plasmodium berghei; details: single oral dose of 20 mg kg^−1; already known; cited from earlier work
[2] = Plasma pharmacokinetics of OZ439, summary over single and multiple dose parts; type: in vivo, human
[3] = Single rising dose plasma PK, OZ439 oral dispersion, fasted healthy subjects; type: in vivo, human; details: for Tmax / AUC(0-inf) / AUC(0-t) / Cmax: human, plasma, po
[4] = tested on: CYP3A4; experiment: CYP3A4 induction assay; type: in vivo, human; details: up to 3 days dosing
[5] = Safety assessment in healthy subjects; type: in vivo, human
[6] = Food effect on plasma PK, 800 mg OZ439 oral dispersion, fed vs fasted; type: in vivo; details: human; for AUC(0-t): single dose 800 mg OZ439 oral dispersion, geometric mean (CV%)
[7] = dogs, preclinical; cited from earlier work
[8] = 14 day toxicology or CNS safety pharmacology studies, preclinical; cited from earlier work
[9] = tested on: P. falciparum laboratory strain NF54; experiment: Ex vivo bioactivity assay of serum samples; type: cell-based; details: Plasmodium falciparum
[10] = Multiple rising dose plasma PK, OZ439 oral dispersion once daily for 3 days; type: in vivo, human; details: for Rac / AUC(0-t) / Cmax: geometric mean (CV%); for AUC(0-t) / Cmax / Tmax: po; for AUC(0-t): AUC(0,24 h)
[11] = Urinary excretion of OZ439 and metabolites; type: in vivo, human; details: single rising dose, 0-48 h urine, data not shown
[12] = Single rising dose plasma PK, OZ439 capsule, fasted healthy subjects; type: in vivo, human
[13] = 800 mg oral dispersion, fasted regimen, possibly treatment related
[14] = single dose 1600 mg oral dispersion, related to study drug
[15] = human, plasma, 200 mg, 200 mg once a day for 3 days, oral dispersion, day 1
[16] = human, plasma, 200 mg, 200 mg once a day for 3 days, oral dispersion, day 3
[17] = human, plasma, 400 mg, 400 mg once a day for 3 days, oral dispersion, day 1
[18] = human, plasma, 400 mg, 400 mg once a day for 3 days, oral dispersion, day 3
[19] = human, plasma, 800 mg, 800 mg once a day for 3 days, oral dispersion, day 1
[20] = human, plasma, 800 mg, 800 mg once a day for 3 days, oral dispersion, day 3
[21] = both, human, plasma, oral, 50 mg
[22] = both, human, plasma, oral, 100 mg
[23] = both, human, plasma, oral, 200 mg

In the case of `c1cc([C@H]2CC[C@]3(CC2)OO[C@]2(O3)C3CC4CC(C3)CC2C4)ccc1OCCN1CCOCC1` [OZ439], the “cure of Plasmodium berghei-infected mice” value [1] is listed as “completely cures”, the Tmax ([2]; human, plasma, oral) is listed as ~3 h and the “time plasma concentrations exceed the estimated minimum effective concentration” value ([2]; well tolerated dose levels) is listed as ~96 h. The “time mean plasma concentrations were above 10 ng ml^−1” value ([3]; 400 mg oral dispersion, fasted) was 36 h, the “time mean plasma concentrations were above 10 ng ml^−1” value ([3]; 800 mg oral dispersion, fasted) was 60 h and the “AUC(0,t), oral dispersion compared with capsule” value ([3]; 800 mg, fasted) was 3.2 fold. The “Cmax, oral dispersion compared with capsule” value ([3]; 800 mg, fasted) was 2.9 fold, the “time mean plasma concentrations were above 10 ng ml^−1” value ([3]; 1600 mg oral dispersion, fasted) was 96 h and the Tmax [3] was 3 to 5 h. For the same molecule, the AUC(0-inf) ([3]; 400 mg) was 5540 ng·h/mL, the AUC(0-t) ([3]; 400 mg) was 5430 ng·h/mL and the Cmax ([3]; 400 mg) was 566 ng/mL. For the same molecule, the Tmax ([3]; 400 mg) was 3 h, the AUC(0-inf) ([3]; 800 mg) was 9790 ng·h/mL and the AUC(0-t) ([3]; 800 mg) was 9630 ng·h/mL. For the same molecule, the Cmax ([3]; 800 mg) was 917 ng/mL, the Tmax ([3]; 800 mg) was 3 h and the AUC(0-t) ([3]; 1600 mg) was 17500 ng·h/mL. The Cmax ([3]; 1600 mg) was 1340 ng/mL, the Tmax ([3]; 1600 mg) was 5 h and the “inter-subject variability of AUC(0,∞)” value ([3]; oral dispersion) was 57.2%. The “inter-subject variability of Cmax” value ([3]; oral dispersion) was 41.8%, the “intra-subject variability of AUC(0,∞)” value ([3]; oral dispersion) was 23.2% and the “intra-subject variability of Cmax” value ([3]; oral dispersion) was 14.0%. For the same molecule, the “induction of CYP3A4” value [4] was “did not induce”, the “subjects experiencing AEs” value ([5]; 200 mg once daily for 3 days) was “Three of six” and the “subjects experiencing AEs” value ([5]; 400 mg once daily for 3 days) was 1/6. For the same molecule, the “subjects experiencing AEs” value ([5]; 800 mg once daily for 3 days) was 4/6, the headache [5, 13] was 1/12 and the nausea [5, 13] was 1/12. The oropharyngeal pain [5, 13] was 1/12, the “subjects experiencing AEs” value ([5]; 800 mg oral dispersion, fed regimen) was “Three of 12” and the headache ([5]; 800 mg oral dispersion, fed regimen, possibly treatment related) was 2/12. The safety and tolerability ([5]; 200, 400 and 800 mg once daily for 3 days) was “safe and well tolerated”, the “effect on QTc interval” value ([5]; healthy subjects) was “no significant effect” and the “overall incidence of AEs” value ([5]; other single rising dose groups, out of 6–8) was 0–2 subjects. For the same molecule, the safety and tolerability ([5]; single dose 800 mg oral dispersion, fasted or fed) was “safe and well tolerated”, the “overall incidence of AEs” value ([5]; single dose 1600 mg oral dispersion) was 5/6 and the diarrhoea [5, 14] was 3/6. The gastrointestinal hypermotility [5, 14] was 2/6, the nausea [5, 14] was 3/6 and the “effect on audiometry/BAEP” value ([5]; single dose and repeat dose parts) was “no clinically significant changes; also recorded: No effect”. The safety and tolerability ([5]; single doses 50 mg up to 1200 mg capsule, oral dispersion up to 1600 mg) was “safe and well tolerated”, the concentration at 96 h [6] was > 10 ng/mL and the AUC(0-t) ([6]; fasted) was 7590 ng·h/mL. For the same molecule, the AUC(0-t) ([6]; fed) was 23100 ng·h/mL, the “no observed adverse effect level (NOAEL)” value [7] was 20 mg/kg/day and the “central nervous system toxicity” value [8] was “no preclinical evidence of central nervous system toxicity”. The IC50 ([9]; NF54, ex vivo serum samples, average value) was 1.5 ng/mL (≈ 3.19 nM), the IC50 ([9]; NF54, ex vivo serum samples, general range) was 1.3 to 2 ng/mL (≈ 2.77 to 4.26 nM) and the IC50 ([9]; NF54, pre-dose serum spiked with a known amount of OZ439) was 1.7 ng/mL (≈ 3.62 nM). For the same molecule, the Rac ([10]; 400 mg once a day for 3 days, oral dispersion, day 3) was 1.76 (29.9), the Rac ([10]; 800 mg once a day for 3 days, oral dispersion, day 3) was 1.43 (26.0) and the attainment of steady-state ([10]; day 3 of dosing) was “steady-state was not achieved; also recorded: had not been attained”. The concentration at 96 h ([10]; human, plasma, oral, 400 mg) was ~17 ng/mL, the AUC(0-t) [10, 15] was 2640 ng·h/mL and the AUC(0-t) [10, 16] was 3060 ng·h/mL. It also gave a Cmax [10, 15] of 314 ng/mL, a Cmax [10, 16] of 342 ng/mL and a Tmax ([10]; human, plasma, 200 mg, tmax, 200 mg once a day for 3 days, oral dispersion, day 1, median (range)) of 3.5 h. The Tmax ([10]; human, plasma, 200 mg, tmax, 200 mg once a day for 3 days, oral dispersion, day 3, median (range)) was 3 h, the AUC(0-t) [10, 17] was 4560 ng·h/mL and the AUC(0-t) [10, 18] was 7990 ng·h/mL. For the same molecule, the Cmax [10, 17] was 505 ng/mL, the Cmax [10, 18] was 764 ng/mL and the Tmax ([10]; human, plasma, 400 mg, tmax, 400 mg once a day for 3 days, oral dispersion, day 1, median (range)) was 3.5 h. It also gave a Tmax ([10]; human, plasma, 400 mg, tmax, 400 mg once a day for 3 days, oral dispersion, day 3, median (range)) of 3 h, an AUC(0-t) [10, 19] of 9570 ng·h/mL and an AUC(0-t) [10, 20] of 13700 ng·h/mL. For the same molecule, the Cmax [10, 19] was 1130 ng/mL, the Cmax [10, 20] was 1390 ng/mL and the Tmax ([10]; human, plasma, 800 mg, median tmax, 200, 400 or 800 mg once daily for 3 days, oral dispersion) was 3 h. The Tmax ([10]; human, plasma, 800 mg, tmax, 800 mg once a day for 3 days, oral dispersion, day 1, median (range)) was 3 h, the Tmax ([10]; human, plasma, 800 mg, tmax, 800 mg once a day for 3 days, oral dispersion, day 3, median (range)) was 3 h and the “inter-subject variability of AUC(0,24 h)” value ([10]; multiple dose, oral dispersion) was 54.1%. The “inter-subject variability of Cmax” value ([10]; multiple dose, oral dispersion) was 48.9%, the urinary concentrations [11] was “low or below the limit of quantitation” and the AUC(0-t) [12, 21] was 102 ng·h/mL. It also gave a Cmax [12, 21] of 17.4 ng/mL, a Tmax [12, 21] of 3 h and an AUC(0-t) [12, 22] of 249 ng·h/mL. It also gave a Cmax [12, 22] of 34.2 ng/mL, a Tmax [12, 22] of 5 h and an AUC(0-t) [12, 23] of 890 ng·h/mL. The Cmax [12, 23] was 102 ng/mL, the Tmax [12, 23] was 3.5 h and the Cmax ([12]; both, human, plasma, oral, 400 mg) was 135 ng/mL. For the same molecule, the “inter-subject variability of AUC(0,t)” value ([12]; capsule) was 71.5%, the “inter-subject variability of Cmax” value ([12]; capsule) was 79.5% and the “intra-subject variability of AUC(0,t)” value ([12]; capsule) was 92.6%. For the same molecule, the “intra-subject variability of Cmax” value ([12]; capsule) was 77.4%, the Tmax ([12]; human, plasma, oral) was 3 to 5 h and the AUC(0-t) ([12]; human, plasma, oral, 400 mg) was 1130 ng·h/mL. For the same molecule, the Tmax ([12]; human, plasma, oral, 400 mg) was 3 h, the AUC(0-inf) ([12]; human, plasma, oral, 800 mg) was 4690 ng·h/mL and the AUC(0-t) ([12]; human, plasma, oral, 800 mg) was 3010 ng·h/mL. For the same molecule, the Cmax ([12]; human, plasma, oral, 800 mg) was 315 ng/mL, the Tmax ([12]; human, plasma, oral, 800 mg) was 3 h and the concentration at 24 h ([12]; human, plasma, oral, 800 mg) was > 20 ng/mL. For the same molecule, the AUC(0-inf) ([12]; human, plasma, oral, 1200 mg) was 9130 ng·h/mL, the AUC(0-t) ([12]; human, plasma, oral, 1200 mg) was 6530 ng·h/mL and the Cmax ([12]; human, plasma, oral, 1200 mg) was 701 ng/mL. The Tmax ([12]; human, plasma, oral, 1200 mg) was 3 h.
